Our source for the TGI values is PubChem BioAssay (NCI).

Test systems include MOLT-4 leukemia; RPMI-8226 leukemia; RXF 393 renal; SF-539 CNS; SK-MEL-28 melanoma; SNB-75 CNS; SNB-78 CNS; U251 CNS; UACC-257 melanoma; TK-10 renal.
What all share (assay): NCI anticancer screen, dose series, 48 h

Each structure is given as a SMILES string.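 48-hour exposure; five concentrations; linearly interpolated endpoints. TGI: concentration producing complete growth inhibition.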

Regarding `CN(C)C(CN)CC1=C(CC(CN)N(C)C)CCC1` (stereo not given), the TGI with MOLT-4 leukemia, in the assay on RPMI-8226 leukemia, in the assay on RXF 393 renal, in the assay with SF-539 CNS, in the assay on SK-MEL-28 melanoma and in the assay on SNB-75 CNS was over 100 µM throughout. In addition, the TGI with SNB-78 CNS, with U251 CNS and in the assay on UACC-257 melanoma was over 100 µM in each case.

On to `COc1cc(/C=C/C(=O)O)ccc1C(=O)O/C=C/c1ccccc1`, for which the TGI in the assay with MOLT-4 leukemia, in the assay on RPMI-8226 leukemia, in the assay on RXF 393 renal, in the assay on SF-539 CNS, in the assay on SK-MEL-28 melanoma and with SNB-75 CNS was over 100 µM each time. In addition, the TGI in the assay on SNB-78 CNS, in the assay on U251 CNS and in the assay with UACC-257 melanoma was over 100 µM throughout.

As to `O=C(CP(=O)(O)O)c1cccs1`, the TGI in the assay with RPMI-8226 leukemia, in the assay with SF-539 CNS, with SK-MEL-28 melanoma, with SNB-75 CNS, with SNB-78 CNS and with TK-10 renal was over 100 µM in each case. The TGI in the assay with U251 CNS and in the assay with UACC-257 melanoma was over 100 µM in each case.

In the case of `COc1cc(/C=C2\C(=O)N(C(=O)Cc3ccccc3)N=C2C)ccc1O`, the TGI in the assay on MOLT-4 leukemia, in the assay on RPMI-8226 leukemia, in the assay with SF-539 CNS, in the assay on SK-MEL-28 melanoma, in the assay on SNB-75 CNS and in the assay on SNB-78 CNS was over 100 µM throughout. The TGI in the assay on TK-10 renal and in the assay with UACC-257 melanoma was over 100 µM in each case.

Regarding `C/C(=N/NC(N)=S)c1ccc2ccccc2c1`, the TGI was over 100 µM with MOLT-4 leukemia; 81.8 µM in the assay on RXF 393 renal; 44.4 µM with SF-539 CNS; over 100 µM in the assay with SK-MEL-28 melanoma; 96.3 µM with SNB-75 CNS; over 100 µM in the assay with SNB-78 CNS. The TGI is over 100 µM with TK-10 renal, 80.4 µM in the assay on U251 CNS and over 100 µM in the assay on UACC-257 melanoma.

In the case of `COc1ccc(-c2cc(=O)c3cc4c(cc3[nH]2)OCO4)c(OC)c1OC`, the TGI in the assay on MOLT-4 leukemia is over 100 µM; in the assay on RPMI-8226 leukemia, over 100 µM; in the assay on RXF 393 renal, over 100 µM; in the assay with SF-539 CNS it was over 100 µM; in the assay on SK-MEL-28 melanoma, over 100 µM; with SNB-75 CNS, 82.2 µM. Further, the TGI in the assay on SNB-78 CNS, in the assay on TK-10 renal and in the assay on U251 CNS was over 100 µM in each case.

As to `CCN(CC)CCNc1ccc2nnn3c4ccc(OC)cc4c(=O)c1c23`, the TGI in the assay with MOLT-4 leukemia was 13.1 µM; in the assay with RPMI-8226 leukemia, 14.9 µM; with SF-539 CNS it was 17.2 µM; with SK-MEL-28 melanoma it was 28.9 µM; in the assay with SNB-75 CNS, 21 µM; with SNB-78 CNS, 25.8 µM. Moreover, the TGI in the assay with TK-10 renal came out at 23.9 µM; with U251 CNS it was 22.3 µM; with UACC-257 melanoma, 25.1 µM.

Regarding `CC(C)(C)C1=Cc2cc3cc(C(C)(C)C)[nH]c(=O)c3cc2S(=O)(=O)N1`, the TGI in the assay on MOLT-4 leukemia was 84.3 µM; with RPMI-8226 leukemia, 98.5 µM; in the assay on SK-MEL-28 melanoma it was over 100 µM; in the assay on SNB-75 CNS it was over 100 µM; in the assay on SNB-78 CNS it was over 100 µM; in the assay on TK-10 renal, 88.3 µM. For the same compound, the figures for the TGI in the assay with U251 CNS and in the assay on UACC-257 melanoma were 34 µM and 58.7 µM, respectively.

`COC(=O)c1c(C)cccc1/C=C1/Cc2c(C)cccc2C1=O`: the TGI was over 100 µM in the assay with MOLT-4 leukemia; 8.51 µM in the assay with RPMI-8226 leukemia; over 100 µM in the assay on RXF 393 renal; over 100 µM with SF-539 CNS; over 100 µM in the assay with SK-MEL-28 melanoma; over 100 µM in the assay on SNB-75 CNS. For the same compound, the TGI in the assay on TK-10 renal, with U251 CNS and in the assay with UACC-257 melanoma was over 100 µM each time.

Take `COc1cc(OCc2ccc3oc(=O)c(-c4ccccc4)nc3c2)cc(OC)c1OC`: the TGI in the assay on MOLT-4 leukemia, with RPMI-8226 leukemia, with RXF 393 renal, in the assay on SF-539 CNS, in the assay with SK-MEL-28 melanoma and in the assay with SNB-75 CNS was over 100 µM each time. Moreover, the TGI in the assay with TK-10 renal, in the assay on U251 CNS and with UACC-257 melanoma was over 100 µM throughout.

For the compound `C[n+]1c(-c2ccccc2)cc2/c(=C\c3ccc([N+](=O)[O-])cc3)c3ccccc3n21`, the TGI was over 30.8 µM in the assay on MOLT-4 leukemia; over 100 µM in the assay on RPMI-8226 leukemia; 19.5 µM with RXF 393 renal; 34.7 µM with SF-539 CNS; 24 µM with SK-MEL-28 melanoma; 15.6 µM in the assay with SNB-75 CNS. Also, the TGI in the assay with TK-10 renal was over 100 µM; with U251 CNS, 19.8 µM; in the assay with UACC-257 melanoma it was over 60.8 µM.

In the case of `Cc1ccccc1OC(C)C(=O)NN1C(=O)CC(=O)N(c2ccc(Cl)cc2)C1=S` (stereo not given), the TGI in the assay with MOLT-4 leukemia was over 100 µM; in the assay with RPMI-8226 leukemia, over 100 µM; in the assay with RXF 393 renal, 78.3 µM; with SF-539 CNS, over 100 µM; in the assay with SK-MEL-28 melanoma it was over 100 µM; with SNB-75 CNS, over 100 µM. Also, the TGI in the assay with TK-10 renal, with U251 CNS and in the assay with UACC-257 melanoma was over 100 µM each time.
